Results published in DBAASP.
≈ marks a conversion by molar mass, not a printed value. Where “and” joins values, the source holds several entries; their conditions need not be identical. Equal values may be shown once. Each block holds one compound with its values, some of them ahead of it.

Columns and labels:
Experiment in all cases: ≥ marks a high value that may be exact or a test limit, other limits are often not marked, values filed in µg/mL are converted to µM
[1] = tested on: Acinetobacter baumannii ATCC 19606
[2] = tested on: Acinetobacter baumannii ATCC BAA-1605
[3] = tested on: Acinetobacter baumannii ATCC BAA-747
[4] = tested on: Acinetobacter baumannii NR-13375
[5] = tested on: Acinetobacter baumannii NR-9667
[6] = tested on: Pseudomonas aeruginosa 1109
[7] = tested on: Pseudomonas aeruginosa 1125
[8] = tested on: Pseudomonas aeruginosa ATCC 10145
[9] = tested on: Pseudomonas aeruginosa ATCC 15442
[10] = tested on: Pseudomonas aeruginosa ATCC 25619
[11] = tested on: Pseudomonas aeruginosa ATCC 27853
[12] = tested on: Pseudomonas aeruginosa ATCC 35032
[13] = tested on: Pseudomonas aeruginosa ATCC 9027
[14] = tested on: Pseudomonas aeruginosa ATCC 9721
[15] = tested on: Pseudomonas aeruginosa ATCC BAA-1744
[16] = tested on: Candida albicans ATCC 10231
Candida albicans = tested on: Candida albicans
[17] = tested on: Escherichia coli ATCC 25922
[18] = tested on: Escherichia coli BL21 (DE3)-NDM-1
[19] = tested on: Escherichia coli BL21(DE3)
Escherichia coli = tested on: Escherichia coli
Klebsiella pneumoniae = tested on: Klebsiella pneumoniae
Pseudomonas aeruginosa = tested on: Pseudomonas aeruginosa
[20] = tested on: Staphylococcus aureus ATCC 25923
Staphylococcus aureus = tested on: Staphylococcus aureus
[21] = tested on: Staphylococcus epidermidis
Candida albicans MDM8 = tested on: Candida albicans MDM8
Escherichia coli SBS 363 = tested on: Escherichia coli SBS 363
Micrococcus luteus A270 = tested on: Micrococcus luteus A270
[22] = tested on: Salmonella enterica subsp. arizonae ATCC 13314
[23] = tested on: Escherichia coli CCARM 1229
[24] = tested on: Listeria monocytogenes KCTC 3710
[25] = tested on: Pseudomonas aeruginosa 3592
[26] = tested on: Pseudomonas aeruginosa 5018
[27] = tested on: Salmonella typhimurium CCARM 8009
[28] = tested on: Salmonella typhimurium CCARM 8013
[29] = tested on: Salmonella typhimurium KCTC 1926
[30] = tested on: Staphylococcus aureus CCARM 3114
[31] = tested on: Staphylococcus aureus CCARM 3709
[32] = tested on: Bacillus subtilis KCTC 3068
Enterococcus faecalis VR = tested on: Enterococcus faecalis VR
Enterococcus faecalis = tested on: Enterococcus faecalis
Enterococcus faecium VR = tested on: Enterococcus faecium VR
Enterococcus faecium = tested on: Enterococcus faecium
[33] = tested on: Escherichia coli KCTC 1682
[34] = tested on: Pseudomonas aeruginosa KCTC 1637
[35] = tested on: Staphylococcus aureus KCTC 1621
Staphylococcus aureus MR = tested on: Staphylococcus aureus MR
[36] = tested on: Staphylococcus epidermidis KCTC 1917
[37] = tested on: Acinetobacter baumannii ATCC 15308
Citrobacter sp. = tested on: Citrobacter sp.
Enterobacter cloacae = tested on: Enterobacter cloacae
Streptococcus pneumoniae = tested on: Streptococcus pneumoniae

MIC [1]: 2 µM (≈ 3.95 µg/mL) | MIC [2]: 4 µM (≈ 7.9 µg/mL) | MIC [3]: 4 µM (≈ 7.9 µg/mL) | MIC [4]: 2 µM (≈ 3.95 µg/mL) | MIC [5]: 4 µM (≈ 7.9 µg/mL) | MIC [6]: 16 µM (≈ 31.6 µg/mL) | MIC [7]: ≥ 32 µM | MIC [8]: 8 µM (≈ 15.8 µg/mL) | MIC [9]: 16 µM (≈ 31.6 µg/mL) | MIC [10]: 8 µM (≈ 15.8 µg/mL) | MIC [11]: 8 µM (≈ 15.8 µg/mL) | MIC [12]: 16 µM (≈ 31.6 µg/mL) | MIC [13]: 4 µM (≈ 7.9 µg/mL) | MIC [14]: 8 µM (≈ 15.8 µg/mL) | MIC [15]: 16 µM (≈ 31.6 µg/mL)
Structure (SMILES): CC[C@H](C)[C@H](NC(=O)[C@H](Cc1c[nH]c2ccccc12)NC(=O)[C@H](CCCCN)NC(=O)[C@H](CCCCN)NC(=O)[C@@H](NC(=O)[C@H](CCCN=C(N)N)NC(=O)[C@H](CCCN=C(N)N)NC(=O)[C@@H](NC(=O)[C@@H](N)Cc1c[nH]c2ccccc12)[C@@H](C)CC)[C@@H](C)CC)C(=O)N[C@@H](CCCN=C(N)N)C(=O)N[C@@H](CCCN=C(N)N)C(=O)N[C@H](C(=O)N[C@@H](Cc1cnc[nH]1)C(=O)N[C@@H](CCCCN)C(=O)O)C(C)C [WIRRIKKWIRRVHK]

MIC [16]: 35.2 µM (≈ 64 µg/mL) | MIC (Candida albicans): 35.2 µM (≈ 64 µg/mL) | MIC [17]: 17.6 µM (≈ 32 µg/mL) | MIC [18]: 4.4 µM (≈ 8 µg/mL) | MIC [19]: 8.79 µM (≈ 16 µg/mL) | MIC (Escherichia coli): 17.6 µM (≈ 32 µg/mL) | MIC (Klebsiella pneumoniae): 17.6 µM (≈ 32 µg/mL) | MIC [11]: 8.79 µM (≈ 16 µg/mL) | MIC (Pseudomonas aeruginosa): 17.6 µM (≈ 32 µg/mL) | MIC [20]: 35.2 µM (≈ 64 µg/mL) | MIC (Staphylococcus aureus): 17.6 µM (≈ 32 µg/mL) | MIC [21]: 17.6 µM (≈ 32 µg/mL)
Structure (SMILES): CC(C)C[C@H](NC(=O)[C@H](CCCCN)NC(=O)[C@H](CCCN=C(N)N)NC(=O)[C@H](Cc1ccccc1)NC(=O)[C@H](Cc1ccccc1)NC(=O)[C@H](CCCCN)NC(=O)[C@H](CCCN=C(N)N)NC(=O)[C@H](CC(C)C)NC(=O)[C@H](CC(C)C)NC(=O)[C@@H](N)CCCN=C(N)N)C(=O)N[C@@H](CCCCN)C(=O)N[C@@H](CCCCN)C(=O)N[C@@H](CO)C(=O)N[C@H](C(=O)O)C(C)C [RLLRKFFRKLKKSV]

MIC (Candida albicans MDM8): 12.5 µM (≈ 15.5 µg/mL) | MIC (Escherichia coli SBS 363): 12.5 µM (≈ 15.5 µg/mL) | MIC (Micrococcus luteus A270): 12.5 µM (≈ 15.5 µg/mL) | MIC [11]: 1.6 µM (≈ 1.98 µg/mL) | MIC [22]: ≥ 50 µM
Structure (SMILES): CC[C@H](C)[C@H](NC(=O)[C@H](CC(C)C)NC(=O)[C@H](CO)NC(=O)[C@H](CC(C)C)NC(=O)[C@H](CC(C)C)NC(=O)[C@@H](N)CO)C(=O)N[C@@H](CCCN=C(N)N)C(=O)N[C@@H](CC(C)C)C(=O)N[C@@H](CC(C)C)C(=O)N[C@H](C(=O)N[C@H](C(N)=O)[C@@H](C)O)[C@@H](C)CC [SLLSLIRLLIT]

MIC [17]: 2 µM (≈ 3.58 µg/mL) | MIC [23]: 1 µM and 2 µM | MIC [24]: 4 µM (≈ 7.16 µg/mL) | MIC [25]: 8 µM (≈ 14.3 µg/mL) | MIC [26]: 8 µM (≈ 14.3 µg/mL) | MIC [11]: 4 µM (≈ 7.16 µg/mL) | MIC [27]: 4 µM (≈ 7.16 µg/mL) | MIC [28]: 4 µM and 8 µM | MIC [29]: 2 µM (≈ 3.58 µg/mL) | MIC [20]: 1 µM (≈ 1.79 µg/mL) | MIC [30]: 8 µM and 16 µM | MIC [31]: 2 µM and 4 µM
Structure (SMILES): CC[C@H](C)[C@H](NC(=O)[C@H](Cc1c[nH]c2ccccc12)NC(=O)[C@H](CCCN=C(N)N)NC(=O)[C@@H](NC(=O)[C@@H](N)CCCN=C(N)N)[C@@H](C)CC)C(=O)N[C@@H](CC(C)C)C(=O)N[C@@H](CCCN=C(N)N)C(=O)N[C@@H](Cc1ccc(O)cc1)C(=O)N[C@@H](Cc1c[nH]c2ccccc12)C(=O)N[C@@H](CCCN=C(N)N)C(=O)N[C@@H](Cc1c[nH]c2ccccc12)C(=O)N[C@@H](CO)C(=O)O [RIRWILRYWRWS]

MIC [32]: 15 µM (≈ 16.7 µg/mL) | MIC (Enterococcus faecalis VR): 30 µM (≈ 33.4 µg/mL) | MIC (Enterococcus faecalis): 30 µM (≈ 33.4 µg/mL) | MIC (Enterococcus faecium VR): 30 µM (≈ 33.4 µg/mL) | MIC (Enterococcus faecium): 30 µM (≈ 33.4 µg/mL) | MIC [33]: 30 µM (≈ 33.4 µg/mL) | MIC [34]: 15 µM (≈ 16.7 µg/mL) | MIC [29]: 30 µM (≈ 33.4 µg/mL) | MIC [35]: 30 µM (≈ 33.4 µg/mL) | MIC (Staphylococcus aureus MR): 30 µM (≈ 33.4 µg/mL) | MIC [36]: 15 µM (≈ 16.7 µg/mL)
Structure (SMILES): CC[C@H](C)[C@H](NC(=O)[C@H](CS)NC(=O)[C@H](Cc1cnc[nH]1)NC(=O)[C@H](C)NC(=O)[C@H](C)N)C(=O)N[C@H](C(=O)N[C@@H](CC(C)C)C(=O)N[C@@H](Cc1cnc[nH]1)C(=O)N[C@@H](Cc1cnc[nH]1)C(=O)N[C@@H](CC(N)=O)C(N)=O)C(C)C [AAHCIVLHHN]

MIC [37]: ≥ 116 µM | MIC (Citrobacter sp.): ≥ 116 µM | MIC (Enterobacter cloacae): ≥ 116 µM | MIC [17]: 116 µM (≈ 250 µg/mL) | MIC (Klebsiella pneumoniae): > 116 µM | MIC [9]: ≥ 116 µM | MIC [20]: 57.8 µM (≈ 125 µg/mL) | MIC (Staphylococcus aureus): 116 µM (≈ 250 µg/mL) | MIC (Streptococcus pneumoniae): ≥ 116 µM
Structure (SMILES): CC[C@H](C)[C@H](NC(=O)[C@H](CCSC)NC(=O)[C@H](C)NC(=O)[C@@H]1CCCN1C(=O)[C@@H](NC(=O)[C@@H](NC(=O)[C@H](CCCCN)NC(=O)[C@@H](NC(=O)[C@H](CC(C)C)NC(=O)CNC(=O)CNC(=O)[C@H](CC(C)C)NC(=O)[C@@H](N)Cc1ccccc1)[C@@H](C)CC)[C@@H](C)CC)C(C)C)C(=O)N[C@H]1CSSC[C@@H](C(=O)O)NC(=O)[C@H](CCCCN)NC(=O)[C@H](CCCCN)NC(=O)[C@H](CCCN=C(N)N)NC(=O)[C@H](C(C)C)NC(=O)[C@H](C)NC1=O [FLGGLIKIVPAMICAVRKKC]
